From patent publication US20240269296A1, “ANTIOXIDANT NUCLEOLIPID PRODRUG, PHARMACEUTICAL COMPOSITION FOR ADMINISTRATION THEREOF, AND THERAPEUTIC USES THEREOF” (UNIVERSITE DE BORDEAUX, priority 2021, published 2024)

Test system: keratinocytes
Experiment: Antioxidant effect on keratinocytes: ROS by flow cytometry with CM-H2DCFDA after solar simulator irradiation
Type: cell-based
Details: 2nd experiment: incubation 48 h, 0.5% w/v in the culture medium
From the text: The assessment of the antioxidant effect of the compositions C3 and C4 according to the invention has been based on the dosage of the amount of reactive oxygen species (ROS) produced in the medium by flow cytometry, after setting the cells treated with these compositions in presence with the oxidative stress indicator CM-H2DCFDA (5-(and-6)-chlorométhyl-2′,7′-dichlorodihydrofluorescein diacetate, acetyl ester) (Invitrogen®). By cleavage of its acetate groups with esterases and its intracellular oxidation by the ROS, this non-fluorescent indicator is converted into highly-fluorescent dichlorofluorescein 2′,7′ (DCF). Thus, the measurement of the fluorescence intensity allows deducing the amount of DCF, and consequently of ROS, in the cell medium. […]
Afterwards, the cells have been detached by tryptinisation by means of trypsin at 0.0025% and EDTA at 0.01% for 10 min at 37° C., neutralised by fetal calf serum at 10% and separated from the medium by centrifugation. […] Afterwards, the fluorescence has been read by a flow cytometer Accuri® 6.
The obtained results, expressed in % of mean fluorescence intensity (MFI) with respect to the non-irradiated (and without C4) control condition, are shown in FIG. 11. […]

SMILES: Cc1c(C)c2c(c(C)c1O)CC[C@@](C)(CCC[C@H](C)CCC[C@H](C)CCCC(C)C)O2 [α-tocopherol]
- production of ROS (% of mean fluorescence intensity vs non-irradiated control): strongly inhibits the production of ROS
